From patent US20090018210A1, “A Method for Promoting Fat Degradation” (YAMAHA HATSUDOKI KABUSHIKI KAISHA, priority 2007, published 2009)

Tested on: Human subcutaneous adipocytes
Assay: Promotion of fat degradation (lipolysis) in human adipocytes, free glycerol in culture supernatant
Assay type: cell-based
Conditions: 30 μM test substance, 3 hours incubation at 37° C., versus 1% (v/v) DMSO control; Lipolysis Assay Kit; FIG. 1
Method: Human subcutaneous adipocytes (Zen-Bio, Inc.) plated onto a 96-well plate was obtained and pre-cultivated under a 5% CO2 atmosphere at 37° C. for 5 days in D-MEM/Ham's F12 Medium (1:1, v/v) containing 3% (v/v) fetal bovine serum, 15 mM HEPES (pH 7.4), 33 μM biotin, 17 μM pantothenate, 100 nM human insulin, 1 μM dexamethasone, 100 U/mL penicillin, 100 μg/mL streptomycin and 0.25 μg/mL amphotericin B. Then, an astaxanthin free form (Wako Pure Chemical Industries, Ltd.: purity 94% or more) and the astaxanthin monoester obtained in Preparation Example 1 were dissolved in dimethyl sulfoxide (DMSO) to prepare stock solutions at a concentration of 3 mM, respectively. The stock solutions were diluted to 30 μM with LIP-2 Assay Buffer (Zen-Bio, Inc.) to prepare test solutions. As a control, 1% (v/v) DMSO solution which was diluted with LIP-2 Assay Buffer was used. Each of the wells was washed with Wash Buffer (Zen-Bio, Inc.) and the test solutions were added to the wells. These wells were incubated under a 5% CO2 atmosphere at 37° C. for 3 hours. After the incubation, the amount of free glycerol in the culture supernatant was measured using a Lipolysis Assay Kit (Zen-Bio, Inc.). […]

Row | Compound | percentage of fat degradation promoted, (A/B)×100(%), amount of free glycerol relative to control
1 | CC1=C(/C=C/C(C)=C/C=C/C(C)=C/C=C/C=C(C)/C=C/C=C(C)/C=C/C2=C(C)C(=O)[C@@H](O)CC2(C)C)C(C)(C)C[C@H](O)C1=O [astaxanthin] | significantly increased
2 | astaxanthin monoester | significantly increased
